Source: ChEMBL document CHEMBL4715724, “Novel 5-substituted-2-anilinoquinolines with 3-(morpholino or 4-methylpiperazin-1-yl)propoxy moiety as broad spectrum antiproliferative agents: Synthesis, cell based assays and kinase screening” (Bioorg Med Chem Lett, 2016)

Legend:
HT-29 = assay: cells; assay type: functional; settings: Homo sapiens, time 48 hrs
Description: Growth inhibition of human HT-29 cells incubated for 48 hrs by sulforhodamine B assay

[1] = target: Aurora kinase A (Homo sapiens) (UniProt O14965); assay: Inhibition of human recombinant Aurora A assessed as residual activity at 10 uM relative to control
Sequence of Aurora kinase A (Homo sapiens) (O14965 whole entry): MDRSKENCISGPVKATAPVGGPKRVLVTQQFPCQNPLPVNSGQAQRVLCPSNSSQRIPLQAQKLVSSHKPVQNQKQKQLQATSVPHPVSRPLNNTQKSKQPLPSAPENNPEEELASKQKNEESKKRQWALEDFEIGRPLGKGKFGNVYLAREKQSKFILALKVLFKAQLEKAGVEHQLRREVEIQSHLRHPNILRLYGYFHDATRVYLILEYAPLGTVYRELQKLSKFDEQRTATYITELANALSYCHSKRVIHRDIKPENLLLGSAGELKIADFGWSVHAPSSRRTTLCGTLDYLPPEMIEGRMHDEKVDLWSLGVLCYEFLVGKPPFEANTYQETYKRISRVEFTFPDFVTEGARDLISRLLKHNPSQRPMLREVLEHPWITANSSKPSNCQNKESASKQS

[2] = Cytotoxicity against human HFF-1 cells assessed as cell growth inhibition at 10 uM by MTT assay relative to control; assay type: cell-based; settings: read-out: GI
PC-3 = assay: cells; assay type: functional; settings: Homo sapiens, time 48 hrs
Description: Growth inhibition of human PC-3 cells incubated for 48 hrs by sulforhodamine B assay

[3] = target: Insulin-like growth factor 1 receptor (Homo sapiens) (UniProt P08069); assay: Inhibition of human IGF1R assessed as residual activity at 10 uM relative to control
[4] = target: MAP kinase-activated protein kinase 2 (Homo sapiens) (UniProt P49137); assay: Inhibition of human MAPKAPK2 expressed in Escherichia coli at 10 uM relative to control
NCI-H23 = assay: cells; assay type: functional; settings: Homo sapiens, time 48 hrs
Description: Growth inhibition of human NCI-H23 cells incubated for 48 hrs by sulforhodamine B assay

[5] = target: Serine/threonine-protein kinase 3 (Homo sapiens) (UniProt Q13188); assay: Inhibition of recombinant N-terminal His6-tagged human MST2 (2 to end residues) expressed in baculovirus infected Sf21 insect cells at 10 uM relative to control
Sequence of Serine/threonine-protein kinase 3 (Homo sapiens) (Q13188 whole entry): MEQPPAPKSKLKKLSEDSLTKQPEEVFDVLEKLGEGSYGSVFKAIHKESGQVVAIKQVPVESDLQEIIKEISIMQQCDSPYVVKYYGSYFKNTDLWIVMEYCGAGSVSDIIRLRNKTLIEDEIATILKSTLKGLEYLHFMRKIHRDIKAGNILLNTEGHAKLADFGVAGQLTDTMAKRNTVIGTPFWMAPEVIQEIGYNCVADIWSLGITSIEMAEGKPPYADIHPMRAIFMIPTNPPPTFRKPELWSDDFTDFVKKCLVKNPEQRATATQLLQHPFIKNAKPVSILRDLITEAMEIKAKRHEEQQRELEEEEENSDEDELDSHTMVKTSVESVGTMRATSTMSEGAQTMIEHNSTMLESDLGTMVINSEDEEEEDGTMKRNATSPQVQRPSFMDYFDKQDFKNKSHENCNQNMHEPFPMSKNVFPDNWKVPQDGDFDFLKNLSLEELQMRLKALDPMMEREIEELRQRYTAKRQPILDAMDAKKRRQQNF

[6] = Cytotoxicity against human HFF-1 cells assessed as cell growth inhibition by MTT assay; assay type: cell-based
[7] = target: Vascular endothelial growth factor receptor 2 (Homo sapiens) (UniProt P35968); assay: Inhibition of N-terminal His6-tagged recombinant human KDR (790 to end residues) expressed in baculovirus infected Sf21 cells at 10 uM relative to control
Sequence of Vascular endothelial growth factor receptor 2 (Homo sapiens) (P35968 whole entry): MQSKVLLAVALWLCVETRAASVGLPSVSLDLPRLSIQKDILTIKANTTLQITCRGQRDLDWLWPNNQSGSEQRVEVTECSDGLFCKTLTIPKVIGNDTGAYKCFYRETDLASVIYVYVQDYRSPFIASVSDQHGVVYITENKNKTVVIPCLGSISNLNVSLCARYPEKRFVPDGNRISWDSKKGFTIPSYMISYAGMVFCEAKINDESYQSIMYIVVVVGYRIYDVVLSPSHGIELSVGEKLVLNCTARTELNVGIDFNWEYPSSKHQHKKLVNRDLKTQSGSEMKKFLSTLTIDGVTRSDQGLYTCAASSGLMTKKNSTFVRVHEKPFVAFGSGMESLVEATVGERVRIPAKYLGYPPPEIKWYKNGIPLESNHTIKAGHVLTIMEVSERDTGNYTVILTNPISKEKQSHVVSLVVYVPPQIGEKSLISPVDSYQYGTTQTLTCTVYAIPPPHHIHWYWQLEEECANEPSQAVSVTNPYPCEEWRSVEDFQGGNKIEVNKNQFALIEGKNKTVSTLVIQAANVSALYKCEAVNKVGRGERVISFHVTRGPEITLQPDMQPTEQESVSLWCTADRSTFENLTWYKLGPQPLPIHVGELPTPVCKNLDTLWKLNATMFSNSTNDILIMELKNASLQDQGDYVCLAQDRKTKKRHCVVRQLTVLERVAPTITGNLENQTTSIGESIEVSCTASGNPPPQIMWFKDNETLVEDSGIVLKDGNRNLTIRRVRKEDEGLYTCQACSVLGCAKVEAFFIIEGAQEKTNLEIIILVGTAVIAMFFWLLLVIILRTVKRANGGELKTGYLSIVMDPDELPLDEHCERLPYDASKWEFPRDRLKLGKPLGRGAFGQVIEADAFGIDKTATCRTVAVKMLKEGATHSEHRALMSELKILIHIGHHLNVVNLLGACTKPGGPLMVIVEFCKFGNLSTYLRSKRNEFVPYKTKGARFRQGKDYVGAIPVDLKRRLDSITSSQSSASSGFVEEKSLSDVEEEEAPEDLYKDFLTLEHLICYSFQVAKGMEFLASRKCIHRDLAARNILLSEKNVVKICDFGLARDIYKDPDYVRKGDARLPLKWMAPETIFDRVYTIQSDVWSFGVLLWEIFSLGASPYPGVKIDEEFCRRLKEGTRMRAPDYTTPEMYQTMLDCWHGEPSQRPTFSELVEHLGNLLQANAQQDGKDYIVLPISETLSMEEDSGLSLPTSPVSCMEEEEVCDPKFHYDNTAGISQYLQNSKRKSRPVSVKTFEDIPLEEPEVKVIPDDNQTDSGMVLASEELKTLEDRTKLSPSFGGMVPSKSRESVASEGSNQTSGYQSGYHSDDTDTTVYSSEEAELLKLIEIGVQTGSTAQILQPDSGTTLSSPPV

OVCAR-8 = assay: cells; assay type: functional; settings: Homo sapiens, time 48 hrs
Description: Growth inhibition of human OVCAR-8 cells incubated for 48 hrs by sulforhodamine B assay

[8] = target: Cyclin-dependent kinase 2/cyclin E1 (Homo sapiens) (UniProt P24864+P24941); assay: Inhibition of full length C-terminal His6-tagged human CDK2/full length N-terminal GST-tagged human Cyclin E expressed in baculovirus infected Sf21 insect cells assessed as residual activity at 10 uM relative to control
HCT-15 = assay: cells; assay type: functional; settings: Homo sapiens, time 48 hrs
Description: Growth inhibition of human HCT-15 cells incubated for 48 hrs by sulforhodamine B assay

[9] = target: Platelet-derived growth factor receptor alpha (Homo sapiens) (UniProt P16234); assay: Inhibition of recombinant N-terminal His6-tagged human PDGFRalpha (550 to end residues) expressed in baculovirus infected Sf21 insect cells at 10 uM relative to control
[10] = target: Tyrosine-protein kinase BTK (Homo sapiens) (UniProt Q06187); assay: Inhibition of recombinant full length N-terminal His6-tagged human BTK expressed in baculovirus infected Sf21 cells assessed as residual activity at 10 uM relative to control
Sequence of Tyrosine-protein kinase BTK (Homo sapiens) (Q06187 whole entry): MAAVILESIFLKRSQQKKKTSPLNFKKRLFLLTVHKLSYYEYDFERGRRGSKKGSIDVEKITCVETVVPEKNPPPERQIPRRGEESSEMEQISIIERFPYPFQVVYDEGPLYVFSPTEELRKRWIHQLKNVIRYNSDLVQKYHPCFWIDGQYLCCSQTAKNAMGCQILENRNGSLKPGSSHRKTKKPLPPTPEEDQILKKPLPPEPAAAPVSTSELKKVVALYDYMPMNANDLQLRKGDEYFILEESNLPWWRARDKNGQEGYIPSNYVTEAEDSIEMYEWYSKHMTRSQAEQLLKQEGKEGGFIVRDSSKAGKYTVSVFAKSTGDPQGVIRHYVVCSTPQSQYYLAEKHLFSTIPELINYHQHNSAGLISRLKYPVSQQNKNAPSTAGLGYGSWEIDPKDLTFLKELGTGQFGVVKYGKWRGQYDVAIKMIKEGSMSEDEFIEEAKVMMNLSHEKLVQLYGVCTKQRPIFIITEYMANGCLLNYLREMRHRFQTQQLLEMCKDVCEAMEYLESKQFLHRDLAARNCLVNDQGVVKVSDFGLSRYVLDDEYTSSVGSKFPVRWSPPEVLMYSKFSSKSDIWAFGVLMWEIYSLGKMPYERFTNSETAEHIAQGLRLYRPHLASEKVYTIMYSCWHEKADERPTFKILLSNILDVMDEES

A498 = assay: cells; assay type: functional; settings: Homo sapiens, time 48 hrs
Description: Growth inhibition of human A498 cells incubated for 48 hrs by sulforhodamine B assay

LOX IMVI = assay: Growth inhibition of human LOX IMVI cells assessed as growth percentage at 10 uM measured after 48 hrs by sulforhodamine B assay relative to control; assay type: functional; settings: read-out: Activity
NCI-H226 = assay: cells; assay type: functional; settings: Homo sapiens, time 48 hrs
Description: Growth inhibition of human NCI-H226 cells incubated for 48 hrs by sulforhodamine B assay

UO-31 = assay: cells; assay type: functional; settings: Homo sapiens, time 48 hrs
Description: Growth inhibition of human UO-31 cells incubated for 48 hrs by sulforhodamine B assay

SR = assay: cells; assay type: functional; settings: Homo sapiens, time 48 hrs
Description: Growth inhibition of human SR cells incubated for 48 hrs by sulforhodamine B assay

[11] = target: CDK3/Cyclin E (Homo sapiens) (UniProt P24864+Q00526); assay: Inhibition of full length C-terminal His6-tagged human CDK3/full length N-terminal GST-tagged human Cyclin E expressed in baculovirus infected Sf21 insect cells assessed as residual activity at 10 uM relative to control
[12] = target: Calcium/calmodulin-dependent protein kinase type II subunit beta (Homo sapiens) (UniProt Q13554); assay: Inhibition of CaMK2beta (unknown origin) at 10 uM relative to control
Sequence of Calcium/calmodulin-dependent protein kinase type II subunit beta (Homo sapiens) (Q13554 whole entry): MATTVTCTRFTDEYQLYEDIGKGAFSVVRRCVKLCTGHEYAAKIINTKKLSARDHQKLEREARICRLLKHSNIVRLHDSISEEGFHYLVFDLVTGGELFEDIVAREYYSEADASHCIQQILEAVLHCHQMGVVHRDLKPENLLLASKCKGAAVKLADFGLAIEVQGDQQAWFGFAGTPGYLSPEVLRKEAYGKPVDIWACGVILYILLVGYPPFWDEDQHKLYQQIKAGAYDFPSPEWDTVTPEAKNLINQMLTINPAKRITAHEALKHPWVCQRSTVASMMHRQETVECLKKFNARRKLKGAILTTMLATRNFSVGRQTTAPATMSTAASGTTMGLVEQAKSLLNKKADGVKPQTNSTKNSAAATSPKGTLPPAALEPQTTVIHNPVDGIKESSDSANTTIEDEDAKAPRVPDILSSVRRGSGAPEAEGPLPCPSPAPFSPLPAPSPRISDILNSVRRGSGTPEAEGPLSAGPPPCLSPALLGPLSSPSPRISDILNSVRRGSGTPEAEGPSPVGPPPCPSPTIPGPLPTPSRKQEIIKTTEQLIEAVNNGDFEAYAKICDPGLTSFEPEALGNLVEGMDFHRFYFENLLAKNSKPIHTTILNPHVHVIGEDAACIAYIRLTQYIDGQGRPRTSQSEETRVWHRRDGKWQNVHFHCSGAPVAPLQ

[13] = target: Tyrosine-protein kinase JAK2 (Homo sapiens) (UniProt O60674); assay: Inhibition of recombinant C-terminal His6-tagged human JAK2 (808 to end residues) expressed in baculovirus infected Sf21 insect cells at 10 uM relative to control
[14] = target: ALK tyrosine kinase receptor (Homo sapiens) (UniProt Q9UM73); assay: Inhibition of N-terminal His6-tagged human recombinant ALK (1058 to end residues) expressed in baculovirus infected Sf21 cells assessed as residual activity at 10 uM relative to control
[15] = tested on: Panel ovarian (Carcinoma cell lines); assay: cells; assay type: functional; settings: Homo sapiens, time 48 hrs
Description: Growth inhibition of human Panel ovarian (Carcinoma cell lines) incubated for 48 hrs by sulforhodamine B assay

[16] = target: Mitogen-activated protein kinase 8 (Homo sapiens) (UniProt P45983); assay: Inhibition of N-terminal His-tagged recombinant full length human JNK1alpha1 expressed in Sf21 cells at 10 uM relative to control
[17] = target: Platelet-derived growth factor receptor beta (Homo sapiens) (UniProt P09619); assay: Inhibition of recombinant N-terminal His6-tagged human PDGFRbeta (557 to end residues) expressed in baculovirus infected Sf21 insect cells at 10 uM relative to control
[18] = target: Proto-oncogene tyrosine-protein kinase receptor Ret (Homo sapiens) (UniProt P07949); assay: Inhibition of recombinant N-terminal GST-tagged human RET (658 to end residues) expressed in baculovirus infected Sf21 insect cells at 10 uM relative to control
[19] = tested on: Serine/threonine-protein kinase B-raf (Homo sapiens), P15056 [V600E]; assay: Inhibition of recombinant N-terminal GST-tagged human BRAF V599E mutant (417 to 766 residues) expressed in Sf9 cells assessed as residual activity at 10 uM relative to control
U-251 = assay: cells; assay type: functional; settings: Homo sapiens, time 48 hrs
Description: Growth inhibition of human U-251 cells incubated for 48 hrs by sulforhodamine B assay

[20] = tested on: Panel melanoma (Carcinoma cell lines); assay: cells; assay type: functional; settings: Homo sapiens, time 48 hrs
Description: Growth inhibition of human Panel melanoma (Carcinoma cell lines) incubated for 48 hrs by sulforhodamine B assay

[21] = tested on: Panel prostate (Carcinoma cell lines); assay: cells; assay type: functional; settings: Homo sapiens, time 48 hrs
Description: Growth inhibition of human Panel prostate (Carcinoma cell lines) incubated for 48 hrs by sulforhodamine B assay

K562 = assay: cells; assay type: functional; settings: Homo sapiens, time 48 hrs
Description: Growth inhibition of human K562 cells incubated for 48 hrs by sulforhodamine B assay

HCT-116 = assay: cells; assay type: functional; settings: Homo sapiens, time 48 hrs
Description: Growth inhibition of human HCT-116 cells incubated for 48 hrs by sulforhodamine B assay

[22] = target: Epidermal growth factor receptor (Homo sapiens) (UniProt P00533); assay: Inhibition of N-terminal GST-tagged human EGFR (696 to end residues) expressed in baculovirus-infected Sf21 cells assessed as residual activity at 10 uM relative to control
Sequence of Epidermal growth factor receptor (Homo sapiens) (P00533 whole entry): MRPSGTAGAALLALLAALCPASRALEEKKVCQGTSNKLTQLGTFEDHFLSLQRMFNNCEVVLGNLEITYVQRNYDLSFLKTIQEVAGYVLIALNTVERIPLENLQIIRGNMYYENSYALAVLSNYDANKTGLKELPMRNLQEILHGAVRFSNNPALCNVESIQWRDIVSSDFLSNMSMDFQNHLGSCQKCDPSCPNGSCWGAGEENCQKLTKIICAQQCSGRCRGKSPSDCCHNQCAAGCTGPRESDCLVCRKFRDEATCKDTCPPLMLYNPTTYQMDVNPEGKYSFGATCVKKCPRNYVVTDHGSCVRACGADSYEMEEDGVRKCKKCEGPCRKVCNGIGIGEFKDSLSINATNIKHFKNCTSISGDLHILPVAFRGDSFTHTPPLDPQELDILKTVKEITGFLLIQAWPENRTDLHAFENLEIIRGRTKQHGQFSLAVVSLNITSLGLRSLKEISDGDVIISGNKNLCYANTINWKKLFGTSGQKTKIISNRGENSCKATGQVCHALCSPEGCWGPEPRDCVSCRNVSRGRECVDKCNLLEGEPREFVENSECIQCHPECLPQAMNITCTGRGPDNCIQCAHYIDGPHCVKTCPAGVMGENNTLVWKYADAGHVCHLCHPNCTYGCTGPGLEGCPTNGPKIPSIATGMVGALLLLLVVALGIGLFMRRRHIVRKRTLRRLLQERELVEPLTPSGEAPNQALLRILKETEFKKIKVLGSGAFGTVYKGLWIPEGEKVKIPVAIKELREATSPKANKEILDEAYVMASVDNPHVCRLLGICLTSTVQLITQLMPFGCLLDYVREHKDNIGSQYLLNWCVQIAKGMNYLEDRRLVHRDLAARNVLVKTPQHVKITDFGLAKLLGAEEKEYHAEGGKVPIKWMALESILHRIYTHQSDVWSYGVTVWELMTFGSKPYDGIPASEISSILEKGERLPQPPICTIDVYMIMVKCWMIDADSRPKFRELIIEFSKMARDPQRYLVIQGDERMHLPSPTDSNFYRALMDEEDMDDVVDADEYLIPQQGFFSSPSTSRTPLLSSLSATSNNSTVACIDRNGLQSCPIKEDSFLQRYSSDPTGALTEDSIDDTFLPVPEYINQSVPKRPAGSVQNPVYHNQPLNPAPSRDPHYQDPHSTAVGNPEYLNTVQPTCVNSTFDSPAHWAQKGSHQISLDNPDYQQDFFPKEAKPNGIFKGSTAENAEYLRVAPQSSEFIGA

SNB-75 = assay: cells; assay type: functional; settings: Homo sapiens, time 48 hrs
Description: Growth inhibition of human SNB-75 cells incubated for 48 hrs by sulforhodamine B assay

HOP-92 = assay: cells; assay type: functional; settings: Homo sapiens, time 48 hrs
Description: Growth inhibition of human HOP-92 cells incubated for 48 hrs by sulforhodamine B assay

SK-MEL-28 = assay: cells; assay type: functional; settings: Homo sapiens, time 48 hrs
Description: Growth inhibition of human SK-MEL-28 cells incubated for 48 hrs by sulforhodamine B assay

MCF7 = assay: cells; assay type: functional; settings: Homo sapiens, time 48 hrs
Description: Growth inhibition of human MCF7 cells incubated for 48 hrs by sulforhodamine B assay

NCI-H522 = assay: cells; assay type: functional; settings: Homo sapiens, time 48 hrs
Description: Growth inhibition of human NCI-H522 cells incubated for 48 hrs by sulforhodamine B assay

[23] = tested on: Panel renal (Carcinoma cell lines); assay: cells; assay type: functional; settings: Homo sapiens, time 48 hrs
Description: Growth inhibition of human Panel renal (Carcinoma cell lines) incubated for 48 hrs by sulforhodamine B assay

With `CN1CCN(CCCOc2cccc3nc(Nc4ccc(Cl)c(C(F)(F)F)c4)ccc23)CC1` the GI50 (HT-29) was 1.12 µM, the Activity [1] was under 60% and the inhibition at 10 µM [2] was 37.1%. It also gave a GI50 (PC-3) of 1.57 µM, an Activity [3] of under 60% and an inhibition [4] of under 60%. The GI50 (NCI-H23) was 1.78 µM, the inhibition [5] was under 60% and the GI50 [6] was over 10 µM. It also gave an inhibition [7] of under 60%, a GI50 (OVCAR-8) of 1.92 µM and an Activity [8] of under 60%. It also gave a GI50 (HCT-15) of 1.22 µM, an inhibition [9] of under 60% and an Activity [10] of under 60%. For the same molecule, the GI50 (A498) was 1.68 µM, the growth at 10 µM (LOX IMVI) was -5.77% and the GI50 (NCI-H226) was 2.07 µM. For the same molecule, the GI50 (UO-31) was 1.46 µM, the GI50 (SR) was 0.54 µM and the Activity [11] was under 60%. It also gave an inhibition [12] of under 60%, an inhibition [13] of under 60% and an Activity [14] of under 60%. The GI50 [15] was 1.98 µM, the LC50 [15] was 10.3 µM and the TGI [15] was 4.18 µM. The inhibition [16] was under 60%, the inhibition [17] was under 60% and the inhibition [18] was under 60%. The Activity [19] was under 60%, the GI50 (U-251) was 1.49 µM and the GI50 [20] was 1.71 µM. It also gave an LC50 [20] of 6.7 µM, a TGI [20] of 3.38 µM and a GI50 [21] of 1.69 µM. For the same molecule, the LC50 (concentration killing 50% of cells) [21] was 5.88 µM, the TGI [21] was 3.15 µM and the GI50 (K562) was 1.62 µM. For the same molecule, the GI50 (HCT-116) was 1.5 µM, the Activity [22] was under 60% and the GI50 (SNB-75) was 1.52 µM. It also gave a GI50 (HOP-92) of 1.02 µM, a GI50 (SK-MEL-28) of 1.39 µM and a GI50 (MCF7) of 1.41 µM. The GI50 (NCI-H522) was 1.83 µM, the GI50 [23] was 1.62 µM and the LC50 (lethal concentration 50%) [23] was 6.46 µM. It also gave a TGI [23] of 3.23 µM.
